Experimental data reported in patent US20060079453A1, “Hla binding peptides and their uses” (priority 2002, published 2006).
Values joined by “and” are separate entries in the source; they are usually repeats but may differ in a detail not shown here. Equal values may be shown once. Read-outs that look alike come from different tables or passages of the source. No end group written: not given here.

How the values were obtained:
Assay in all cases: biochemical
[1] = target: HLA-B*0702 (Homo sapiens, UniProt P01889); type: binding; settings: B*0702 binding affinity (IC50)
[2] = target: HLA-DR DRB5*0101 (DR51) (Homo sapiens, UniProt P01903+Q30154); type: binding
[3] = target: HLA-DR DRB1*0701 (DR7) (Homo sapiens, UniProt P01903+P01911, A100R/A102G/A103Q/D57E/D86V/E43K/F76Y/K127E/L162R/M171V/P40G/Q125H/Q99D/R33Q/R42Y/R54Q/S133A/S66F/T210M/V115G/Y107V/Y59L/Y89S); type: binding
[4] = target: HLA-DR DRB1*0401 (DR4) (Homo sapiens, UniProt P01903+P01911, A100K/A169T/F76Y/I96L/K127E/L162R/M171V/N62H/P40V/Q125Y/R42H/S133A/S149N/S66Y/V115G/V209L/W38E); type: binding; settings: DRB1 *0401
[5] = target: HLA-DR DRB1*0901 (DR9) (Homo sapiens, UniProt P01903+P01911, A100R/A103E/D57H/D86V/F55Y/F60I/F76Y/I96F/K127E/L162R/M171V/P40D/Q125H/Q99R/R33Q/R42F/S133A/S66N/T210M/V115G/W38K/Y107V/Y59G/Y89S); type: binding; settings: DRB1 *0901
[6] = target: HLA-DR DRB1*1501 (DR15) (Homo sapiens, UniProt P01903+P01911); type: binding
[7] = target: HLA-DR DRB1*0802 (DR8) (Homo sapiens, UniProt P01903+P01911, A100R/A103L/A169T/F76Y/H45Y/I96F/K41T/L162R/M171V/P40S/Q125H/Q178H/Q39Y/Q99D/R218S/R42G/S66Y/V115G/W38E); type: binding
[8] = target: HLA-DR DRB4*0101 (DR53) (Homo sapiens, UniProt P01903+P13762, G164S); type: binding
[9] = target: HLA-DR DRB1*0405 (DR4) (Homo sapiens, UniProt P01903+P01911, A100R/A169T/D86S/F76Y/I96L/K127E/L162R/M171V/N62H/P40V/Q125Y/R42H/S133A/S149N/S66Y/V115G/V209L/W38E); type: binding; settings: DRB1 *0405
[10] = target: HLA-DR DRB1*0301 (DR3) (Homo sapiens, UniProt P01903+P01911, A100K/A102G/A103R/A169T/F55Y/I96L/K41T/L162R/M171V/P40S/Q125H/Q178H/Q39Y/R42S/S66N/T106N/T262R/W38E/Y61H); type: binding
[11] = target: HLA-DR DRB3*0101 (DR52) (Homo sapiens, UniProt P01903+P79483); type: binding
[12] = target: HLA-DQ DQA1*0301/B*0301 (DQ7) (Homo sapiens, UniProt P01909+P01920, A209T/C70Q/DUP78-78/E183D/F237L/G63E/I129T/K197E/L178F/L74F/L98V/Q57E/Q76R/S185I/S97I/T49S/V73L); type: binding
[13] = target: HLA-DR DRB1*1101 (DR11) (Homo sapiens, UniProt P01903+P01911, A100R/A169T/A87E/I96F/K41T/L162R/M171V/P40S/Q125H/Q178H/Q39Y/Q99D/R42S/S66Y/T262R/V115G/W38E); type: binding
[14] = target: H-2Dd (Mus musculus, UniProt P01900); type: binding, murine
[15] = target: HLA-B*5401 (Homo sapiens, UniProt P01889, A329T/C349S/D138N/D201E/E176V/E187T/E204Q/E69G/I76V/K202T/L119W/R155S/R180L/S121T/S35A/S48A/V127L/V306I/V36M/Y140L); type: binding; settings: B*5401 binding affinity (IC50)
[16] = target: HLA-B*5101 (Homo sapiens, UniProt P01889, A329T/A93T/A95T/C349S/D138N/D201E/D98Y/E187L/E204Q/E69T/G107R/I218V/K202T/L105A/L119W/N104I/Q94N/R106L/R155S/R180L/S101N/S121T/S35A/S48A/V306I/V36M/Y195H/Y91F); settings: B*5101 binding affinity (IC50)
[17] = target: HLA-B*3501 (Homo sapiens, UniProt P01889, A329T/A93T/A95T/C349S/D201E/D98Y/E176V/E187L/E204Q/E69T/I218V/K202T/L119I/Q94N/R155S/R180L/S121R/S35A/S48A/T118I/V127L/V306I/V36M/Y140S/Y91F); settings: B*3501 binding affinity (IC50)
[18] = target: H-2 Db (Mus musculus, UniProt P01899); type: binding, murine
Chain of H-2 Db (P61769 21-119): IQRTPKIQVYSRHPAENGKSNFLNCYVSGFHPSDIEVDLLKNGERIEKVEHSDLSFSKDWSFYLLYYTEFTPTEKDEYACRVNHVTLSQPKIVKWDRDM
Chain of H-2 Db (P01899 25-362): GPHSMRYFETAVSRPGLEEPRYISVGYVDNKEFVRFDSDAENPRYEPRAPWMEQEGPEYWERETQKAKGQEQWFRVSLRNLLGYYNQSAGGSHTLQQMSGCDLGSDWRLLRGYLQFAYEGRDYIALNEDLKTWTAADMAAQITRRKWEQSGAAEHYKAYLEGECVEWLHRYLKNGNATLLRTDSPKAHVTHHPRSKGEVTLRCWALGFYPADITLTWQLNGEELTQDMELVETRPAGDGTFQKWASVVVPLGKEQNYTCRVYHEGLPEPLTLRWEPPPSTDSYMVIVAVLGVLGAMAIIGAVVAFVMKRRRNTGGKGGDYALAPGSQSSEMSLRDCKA

Chain of H-2Dd (P01900 25-365): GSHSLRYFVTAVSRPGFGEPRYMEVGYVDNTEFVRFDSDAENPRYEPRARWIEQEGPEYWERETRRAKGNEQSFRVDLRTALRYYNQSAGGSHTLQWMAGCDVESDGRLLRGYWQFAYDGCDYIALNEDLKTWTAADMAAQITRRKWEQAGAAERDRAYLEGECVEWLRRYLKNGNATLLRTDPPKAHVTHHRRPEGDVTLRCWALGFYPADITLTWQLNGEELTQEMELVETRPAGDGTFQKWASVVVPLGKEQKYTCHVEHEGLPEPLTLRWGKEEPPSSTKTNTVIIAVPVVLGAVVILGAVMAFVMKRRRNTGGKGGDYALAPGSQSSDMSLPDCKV
Chain of H-2Dd (P61769 21-119, further chain): as the sequence (P61769 21-119) above
Chain of HLA-DR DRB1*1101 (DR11) (P01903 26-254 limits assumed, other chains not shown): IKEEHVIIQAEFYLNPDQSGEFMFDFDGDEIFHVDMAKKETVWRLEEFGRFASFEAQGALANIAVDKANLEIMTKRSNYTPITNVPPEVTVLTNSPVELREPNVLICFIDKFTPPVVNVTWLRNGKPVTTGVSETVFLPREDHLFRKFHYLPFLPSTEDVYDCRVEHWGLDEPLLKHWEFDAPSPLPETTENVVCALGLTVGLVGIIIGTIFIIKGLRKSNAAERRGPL
Chain of HLA-DR DRB1*0301 (DR3) (P01903 26-254 limits assumed, other chains not shown): as above

Q: For RPRFRGPGPGF, which IC50 [1] is on record?
A: 9.7 nM

Q: How did the IC50 [1] turn out when APGPGPGTAL [APGPGPGTAL] was run?
A: 81 nM

Q: How did the IC50 ([2]; DRB5 *0101) turn out when CC[C@H](C)[C@H](NC(=O)[C@@H](N)CCCCN)C(=O)N[C@@H](Cc1ccccc1)C(=O)NCC(=O)N[C@@H](CO)C(=O)N[C@@H](CC(C)C)C(=O)N[C@@H](C)C(=O)N[C@@H](Cc1ccccc1)C(=O)N[C@@H](CC(C)C)C(=O)N1CCC[C@H]1C(=O)N[C@@H](CCC(=O)O)C(=O)N[C@@H](CO)C(=O)N[C@@H](Cc1ccccc1)C(=O)N[C@@H](CC(=O)O)C(=O)NCC(=O)N[C@@H](CC(=O)O)C(=O)N1CCC[C@H]1C(=O)N[C@@H](C)C(=O)O was run?
A: 8010 nM

Q: And the IC50 ([3]; DRB1 *0701)?
A: 377 nM

Q: What about the IC50 [4] of the same compound?
A: 1200 nM

Q: What about the IC50 [5] of the same compound?
A: 15800 nM

Q: What about the IC50 ([6]; DRBI *1501) of the same compound?
A: 2260 nM

Q: What about the IC50 [7] of the same compound?
A: > 75400 nM

Q: What about the IC50 ([8]; DRB4 *0101) of the same compound?
A: 10000 nM

Q: What about the IC50 [9] of the same compound?
A: 37 nM

Q: And the IC50 [10]?
A: 74200 nM

Q: What about the IC50 [11] of the same compound?
A: 43700 nM

Q: What about the IC50 [12] of the same compound?
A: 320 nM

Q: And the IC50 ([13]; DRB1 *1101)?
A: > 52600 nM

Q: With FSPRRNGYL as the compound, how does the IC50 [14] read?
A: 2.7 nM

Q: Which IC50 [14] does the source give for RGPGRAFYTI here?
A: 7.2 nM

Q: How did the IC50 [1] turn out when YPLTFGWCI was run?
A: 54300 nM

Q: What about the IC50 [15] of the same compound?
A: 79 nM

Q: How did the IC50 [1] turn out when APRGPGPGAL [APRGPGPGAL] was run?
A: 11 nM

Q: For GGAYRLIVF, which IC50 [14] is on record?
A: 3.5 nM

Q: Which IC50 [1] does the source give for GPKVKQWPI here?
A: 5500 nM

Q: What about the IC50 [16] of the same compound?
A: > 55000 nM

Q: What about the IC50 [17] of the same compound?
A: > 72000 nM

Q: What about the IC50 [15] of the same compound?
A: > 50000 nM

Q: For APAAPGPGPGA, which IC50 [1] is on record?
A: 811 nM

Q: How did the IC50 [14] turn out when RGPYKAFVTI was run?
A: 13 nM

Q: Which results are given for YAAFAAAKTAAAFA?
A: IC50 ([2]; read-out: DRB5 *0101): 9.5 nM; IC50 ([3]; read-out: DRB1 *0701): 34 nM; IC50 ([6]; read-out: DRBI *1501): > 4350 nM; IC50 ([8]; read-out: DRB4 *0101): 30 nM; IC50 ([11]; read-out: DRB3 *0101): 33300 nM; IC50 ([12]; read-out: DQB1*0301): 36 nM and 39 nM; IC50 ([13]; read-out: DRB1 *1101): 2.6 nM

Q: RGPGRYFVTI was tested. Which IC50 [14] did it give?
A: 2.7 nM

Q: How did the IC50 [16] turn out when RPQVPLRPMTI was run?
A: 8080 nM

Q: What about the IC50 [17] of the same compound?
A: > 19000 nM and 10500 nM

Q: And the IC50 [15]?
A: > 15100 nM

Q: How did the IC50 ([12]; read-out: DQB1*0301) turn out when IDWDLGGLAENFLPY was run?
A: 218 nM

Q: How did the IC50 ([12]; read-out: DQB1*0301) turn out when STGWNRTIVENLLAN was run?
A: 47100 nM

Q: Which IC50 [14] does the source give for RGPYRAAVTI here?
A: 2 nM

Q: SSMHNALHI was tested. Which IC50 ([18]; Db) did it give?
A: 7.6 nM

Q: For RGPYRAYVTI, which IC50 [14] is on record?
A: 2.1 nM

Q: For RGPYRKFVTI, which IC50 [14] is on record?
A: 3.6 nM

Q: How did the IC50 [14] turn out when WGPSLYSI was run?
A: 17 nM

Q: APRGPGPGL was tested. Which IC50 [1] did it give?
A: 4.9 nM

Q: How did the IC50 ([12]; read-out: DQB1*0301) turn out when CLKDRRNFDIIPEEIK was run?
A: 19400 nM

Q: RGAYRAFVTI was tested. Which IC50 [14] did it give?
A: 3.4 nM

Q: For CSCC[C@H](NC(=O)[C@H](C)NC(=O)[C@H](C)NC(=O)[C@H](C)NC(=O)[C@H](CC(N)=O)NC(=O)[C@H](C)NC(=O)[C@H](C)NC(=O)[C@H](C)NC(=O)[C@H](C)NC(=O)[C@H](C)NC(=O)[C@H](C)N)C(=O)O, which IC50 ([18]; Db) is on record?
A: 257 nM

Q: Which IC50 ([12]; read-out: DQB1*0301) does the source give for QKEDAAVTIYIEMLQN here?
A: 515 nM

Q: For APGPGPGLL, which IC50 [1] is on record?
A: 299 nM

Q: For TGICNQNII, which IC50 ([18]; read-out: Db) is on record?
A: 21 nM

Q: With CSCC[C@H](NC(=O)[C@@H](NC(=O)[C@H](CCC(=O)O)NC(=O)[C@H](CCSC)NC(=O)[C@H](CC(N)=O)NC(=O)[C@H](CCC(=O)O)NC(=O)[C@H](CC(N)=O)NC(=O)[C@H](CO)NC(=O)[C@H](C)N)[C@@H](C)O)C(=O)O as the compound, how does the IC50 [14] read?
A: > 37000 nM

Q: And the IC50 ([18]; Db)?
A: 41 nM and 33 nM

Q: For APAGPGPGAPA, which IC50 [1] is on record?
A: 161 nM

Q: How did the IC50 [14] turn out when AGPYRAFVTI was run?
A: 5 nM

Q: With KEDSHCAWTWRVEI as the compound, how does the IC50 ([12]; read-out: DQB1*0301) read?
A: 4100 nM

Q: For RGPYRAFATI, which IC50 [14] is on record?
A: 2.1 nM

Q: For CC[C@H](C)[C@H](N)C(=O)N[C@H](C(=O)N[C@@H](Cc1ccc(O)cc1)C(=O)N[C@@H](CCCCN)C(=O)N[C@@H](CC(N)=O)C(=O)N[C@@H](CO)C(=O)N[C@H](C(=O)N[C@@H](Cc1c[nH]c2ccccc12)C(=O)N[C@H](C(=O)O)C(C)C)[C@@H](C)O)[C@@H](C)O, which IC50 ([18]; Db) is on record?
A: 409 nM and 276 nM
